Consider 16 molecules from patent US7384931B2, “Constrained compounds as CGRP-receptor antagonists” (Bristol-Myers Squibb Company, priority 2004, dated 2008).

The structures appear in SMILES notation.

In assay [1] the target is T1, CGRP receptor (Homo sapiens, UniProt O60894+Q16602). Nature of the assay: Cyclic AMP functional antagonism assay in SK-N-MC cells. Set-up: SK—N-MC cells that endogenously express the human CGRP receptor; endogenous in cells; host or cells: SK-N-MC cells. The settings on record: inhibition of 0.3 nM CGRP-induced cyclic AMP formation, 15 min pre-incubation, read-out: cAMP Function IC50. The assay is classed as cell-based. The procedure:
Cyclic AMP Functional Antagonism Assay. Antagonism of the compounds of invention was determined by measuring the formation of cyclic AMP (adenosine 3′5′-cyclic monophosphate) in SK—N-MC cells that endogenously express the human CGRP receptor. CGRP receptor complex is coupled with Gs protein and CGRP binding to this complex leads to the cyclic AMP production via Gs—dependent activation of an adenylate cyclase (Juaneda C et al., TiPS, 2000; 21:432-438; incorporated by reference herein). Consequently, CGRP receptor antagonists inhibit CGRP—induced cyclic AMP formation in SK—N-MC cells (Doods H et al., Br J Pharmacol, 2000; 129(3):420-423); incorporated by reference herein). For cyclic AMP measurements SK—N-MC cells were incubated with 0.3 nM CGRP alone or in the presence of various concentrations of the compounds of invention for 30 min at room temperature. Compounds of invention were pre-incubated with SK—N-MC cells for 15 min before the addition of CGRP to allow receptor occupancy (Edvinsson et al., Eur J Pharmacol, 2001, 415:39-44; incorporated by reference herein). Cyclic AMP was extracted using the lysis reagent and its concentration was determined by radioimmunoassay using RPA559 cAMP SPA Direct Screening Assay Kit (Amersham Pharmacia Biotech). IC50 values were calculated using Excel fit.

For assay [2], the target named is T1, CGRP receptor. Briefly: CGRP radioligand binding assay ([125I]-CGRP displacement, SK-N-MC homogenate). Set-up: endogenous in cells; host or cells: SK-N-MC cells (homogenate/membrane pellet). The conditions noted are these: displacement of [125I]-CGRP, room temperature 2 h. Summed up:
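SK-N-MC cell homogenate (5 μg/well) was incubated 2 h at room temperature with [125I]-CGRP (diluted to 60 pM before addition) in 50 mM Tris-Cl pH 7.5, 5 mM MgCl2, 0.005% Triton X-100 plus protease inhibitors. Bound radioactivity was collected by filtration; 1 μM beta-CGRP defined non-specific binding. IC50 is 50% radioligand displacement.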

T1 sequence (Q16602 23-461): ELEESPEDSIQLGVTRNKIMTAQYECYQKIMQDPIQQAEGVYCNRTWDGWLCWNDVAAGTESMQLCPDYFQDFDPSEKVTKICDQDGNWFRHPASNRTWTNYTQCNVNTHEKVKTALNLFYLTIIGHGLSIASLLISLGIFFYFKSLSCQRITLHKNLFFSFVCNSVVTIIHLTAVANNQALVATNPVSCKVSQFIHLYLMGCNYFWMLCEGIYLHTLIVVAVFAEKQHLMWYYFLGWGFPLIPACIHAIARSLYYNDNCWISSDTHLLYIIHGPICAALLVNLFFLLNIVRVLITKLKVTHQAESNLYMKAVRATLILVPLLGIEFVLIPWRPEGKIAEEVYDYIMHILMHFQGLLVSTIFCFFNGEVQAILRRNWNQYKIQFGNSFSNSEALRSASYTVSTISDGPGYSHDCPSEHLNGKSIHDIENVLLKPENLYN
T1 sequence (O60894 27-148): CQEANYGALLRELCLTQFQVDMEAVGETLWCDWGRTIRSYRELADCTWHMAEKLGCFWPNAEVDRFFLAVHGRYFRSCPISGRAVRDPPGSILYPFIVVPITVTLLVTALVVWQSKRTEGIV

With `CC(C)(C)CN1Cc2c(ccc3[nH]ncc23)C[C@@H](CC(=O)N2CCC(N3Cc4cccc(F)c4NC3=O)CC2)C1=O` [Example 39, (S)-7-(2-(4-(8-Fluoro-2-oxo-1,2-dihydroquinazolin-3(4H)-yl)piperidin-1-yl)-2-oxoethyl)-9-neopentyl-6,7,9,10-tetrahydroazepino[3,4-e]indazol-8(3H)-one], the IC50 at CGRP receptor [1] and on CGRP receptor [2] was 10 to 100 nM throughout.

With `CC(C)(C)CN1Cc2c(cc(Cl)c3[nH]ncc23)C[C@@H](CC(=O)N2CCC(N3Cc4cccc(F)c4NC3=O)CC2)C1=O` [Example 40, (S)-4-Chloro-7-(2-(4-(8-fluoro-2-oxo-1,2-dihydroquinazolin-3(4H)-yl)piperidin-1-yl)-2-oxoethyl)-9-neopentyl-6,7,9,10-tetrahydroazepino[3,4-e]indazol-8(3H)-one], the 50% inhibitory concentration (IC50) on CGRP receptor [1] and at CGRP receptor [2] was 0.1 to 10 nM in each case.

As to `CC(C)(C)CN1Cc2c(cc(Cl)c3[nH]ncc23)C[C@@H](CC(=O)N2CCC(N3Cc4ccccc4CC3=O)CC2)C1=O` [Example 41, (S)-4-Chloro-9-neopentyl-7-(2-oxo-2-(4-(3-oxo-3,4-dihydroisoquinolin-2(1H)-yl)piperidin-1-yl)ethyl)-6,7,9,10-tetrahydroazepino[3,4-e]indazol-8(3H)-one], the half-maximal inhibitory concentration (IC50) on CGRP receptor [1] and at CGRP receptor [2] was 0.1 to 10 nM throughout.

On to `CC(C)(C)CN1Cc2c(ccc3[nH]ncc23)C[C@@H](CC(=O)N2CCC(c3cc4ccccc4[nH]c3=O)CC2)C1=O` [Example 42, (S)-9-Neopentyl-7-(2-oxo-2-(4-(2-oxo-1,2-dihydroquinolin-3-yl)piperidin-1-yl)ethyl)-6,7,9,10-tetrahydroazepino[3,4-e]indazol-8(3H)-one], for which the concentration for half-maximal inhibition (IC50) at CGRP receptor [1] and on CGRP receptor [2] was 10 to 100 nM throughout.

`CC(C)(C)CN1Cc2c(cc(Cl)c3[nH]ncc23)C[C@@H](CC(=O)N2CCC(c3cc4ccccc4[nH]c3=O)CC2)C1=O` [Example 43, (S)-4-Chloro-9-neopentyl-7-(2-oxo-2-(4-(2-oxo-1,2-dihydroquinolin-3-yl)piperidin-1-yl)ethyl)-6,7,9,10-tetrahydroazepino[3,4-e]indazol-8(3H)-one]: the IC50 on CGRP receptor [1] and on CGRP receptor [2] was 0.1 to 10 nM each time.

On to `CC(C)(C)CN1Cc2c(cc(Cl)c3[nH]ncc23)C[C@@H](CC(=O)N2CCC(n3cc(-c4ccccc4)[nH]c3=O)CC2)C1=O` [Example 44, (S)-4-Chloro-9-neopentyl-7-(2-oxo-2-(4-(2-oxo-4-phenyl-2,3-dihydroimidazol-1-yl)piperidin-1-yl)ethyl)-6,7,9,10-tetrahydroazepino[3,4-e]indazol-8(3H)-one], for which the IC50 at CGRP receptor [1] and at CGRP receptor [2] was 0.1 to 10 nM throughout.

Consider `CC(C)(C)CN1Cc2c(cc(Cl)c3[nH]ncc23)C[C@@H](CC(=O)N2CCC(n3cc(-c4ccccn4)[nH]c3=O)CC2)C1=O` [Example 45, (S)-4-Chloro-9-neopentyl-7-(2-oxo-2-(4-(2-oxo-4-(pyridin-2-yl)-2,3-dihydroimidazol-1-yl)piperidin-1-yl)ethyl)-6,7,9,10-tetrahydroazepino[3,4-e]indazol-8(3H)-one], for which the IC50 at CGRP receptor [1] and at CGRP receptor [2] was 0.1 to 10 nM in each case.

On to `CC(C)(C)CN1Cc2c(cc(Cl)c3[nH]ncc23)C[C@@H](CC(=O)N2CCC3(CC2)NC(=O)Nc2ccccc23)C1=O` [Example 46], for which the IC50 at CGRP receptor [1] and on CGRP receptor [2] was 0.1 to 10 nM in each case.

As for `CC(C)(C)CN1Cc2c(cc(Cl)c3[nH]ncc23)C[C@@H](CC(=O)N2CCC(c3cc4cccc(F)c4[nH]c3=O)CC2)C1=O` [Example 47, (S)-4-Chloro-7-(2-(4-(8-fluoro-2-oxo-1,2-dihydroquinolin-3-yl)piperidin-1-yl)-2-oxoethyl)-9-neopentyl-6,7,9,10-tetrahydroazepino[3,4-e]indazol-8(3H)-one], the half-maximal inhibitory concentration (IC50) on CGRP receptor [1] and at CGRP receptor [2] was 10 to 100 nM throughout.

As for `O=C(C[C@@H]1Cc2cc(Cl)c3[nH]ncc3c2CN(Cc2ccncc2)C1=O)N1CCC(N2Cc3ccccc3NC2=O)CC1` [Example 49, (S)-4-Chloro-7-(2-oxo-2-(4-(2-oxo-1,2-dihydroquinazolin-3(4H)-yl)piperidin-1-yl)ethyl)-9-(pyridin-4-ylmethyl)-6,7,9,10-tetrahydroazepino[3,4-e]indazol-8(3H)-one], the half-maximal inhibitory concentration (IC50) on CGRP receptor [1] and on CGRP receptor [2] was 0.1 to 10 nM in each case.

Take `O=C(C[C@@H]1Cc2cc(Cl)c3[nH]ncc3c2CN(Cc2ccncc2)C1=O)N1CCC(N2Cc3cccc(F)c3NC2=O)CC1` [Example 50, (S)-4-Chloro-7-(2-(4-(8-fluoro-2-oxo-1,2-dihydroquinazolin-3(4H)-yl)piperidin-1-yl)-2-oxoethyl)-9-(pyridin-4-ylmethyl)-6,7,9,10-tetrahydroazepino[3,4-e]indazol-8(3H)-one]: the half-inhibitory concentration (IC50) at CGRP receptor [1] and at CGRP receptor [2] was 0.1 to 10 nM each time.

As for `O=C(C[C@@H]1Cc2cc(Cl)c3[nH]ncc3c2CN(Cc2ccncc2)C1=O)N1CCC(c2cc3ccccc3[nH]c2=O)CC1` [Example 52, (S)-4-Chloro-7-(2-oxo-2-(4-(2-oxo-1,2-dihydroquinolin-3-yl)piperidin-1-yl)ethyl)-9-(pyridin-4-ylmethyl)-6,7,9,10-tetrahydroazepino[3,4-e]indazol-8(3H)-one], the IC50 at CGRP receptor [1] and at CGRP receptor [2] was 0.1 to 10 nM throughout.

Turning to `O=C(C[C@@H]1Cc2cc(Cl)c3[nH]ncc3c2CN(Cc2ccncc2)C1=O)N1CCC(n2cc(-c3ccccc3)[nH]c2=O)CC1` [Example 53, (S)-4-Chloro-7-(2-oxo-2-(4-(2-oxo-4-phenyl-2,3-dihydroimidazol-1-yl)piperidin-1-yl)ethyl)-9-(pyridin-4-ylmethyl)-6,7,9,10-tetrahydroazepino[3,4-e]indazol-8(3H)-one], the IC50 on CGRP receptor [1] and on CGRP receptor [2] was 0.1 to 10 nM each time.

With `O=C(C[C@@H]1Cc2cc(Cl)c3[nH]ncc3c2CN(Cc2ncc[nH]2)C1=O)N1CCC(N2Cc3ccccc3NC2=O)CC1` [Example 54, (S)-9-((1H-Imidazol-2-yl)methyl)-4-chloro-7-(2-oxo-2-(4-(2-oxo-1,2-dihydroquinazolin-3(4H)-yl)piperidin-1-yl)ethyl)-6,7,9,10-tetrahydroazepino[3,4-e]indazol-8(3H)-one], the half-inhibitory concentration (IC50) on CGRP receptor [1] and at CGRP receptor [2] was 0.1 to 10 nM throughout.

On to `CC(C)(C)CN1Cc2c(cc(Cl)c3[nH]ncc23)C[C@@H](CC(=O)N2CCC(c3cc4cnccc4[nH]c3=O)CC2)C1=O` [Example 80, 1-[[(7S)-4-chloro-9-(2,2-dimethylpropyl)-3,6,7,8,9,10-hexahydro-8-oxoazepino[3,4-e]indazol-7-yl]acetyl]-4-(1,2-dihydro-2-oxo-1,6-naphthyridin-3-yl)-piperidine], for which the IC50 on CGRP receptor [1] and on CGRP receptor [2] was 10 to 100 nM in each case.

Take `O=C(C[C@@H]1Cc2cc(Cl)c3[nH]ncc3c2CN(Cc2ccncc2)C1=O)N1CCC(c2cc3ccccc3cn2)CC1` [Example 85, (S)-4-chloro-7-(2-(4-(isoquinolin-3-yl)piperidin-1-yl)-2-oxoethyl)-9-(pyridin-4-ylmethyl)-6,7,9,10-tetrahydroazepino[3,4-e]indazol-8(3H)-one]: the IC50 on CGRP receptor [1] and at CGRP receptor [2] was 10 to 100 nM each time.
